Target: recombinant Plk1 (Homo sapiens, UniProt P53350)
Assay: In Vitro Plk1 Enzyme Assay (SPA, GST-Cdc25C phosphorylation)
Type: biochemical
Details: ATP 64 nM, 90 minutes, read-out: IC50 (Plk1 enzyme inhibition)

Chain of recombinant Plk1 (P53350 whole entry): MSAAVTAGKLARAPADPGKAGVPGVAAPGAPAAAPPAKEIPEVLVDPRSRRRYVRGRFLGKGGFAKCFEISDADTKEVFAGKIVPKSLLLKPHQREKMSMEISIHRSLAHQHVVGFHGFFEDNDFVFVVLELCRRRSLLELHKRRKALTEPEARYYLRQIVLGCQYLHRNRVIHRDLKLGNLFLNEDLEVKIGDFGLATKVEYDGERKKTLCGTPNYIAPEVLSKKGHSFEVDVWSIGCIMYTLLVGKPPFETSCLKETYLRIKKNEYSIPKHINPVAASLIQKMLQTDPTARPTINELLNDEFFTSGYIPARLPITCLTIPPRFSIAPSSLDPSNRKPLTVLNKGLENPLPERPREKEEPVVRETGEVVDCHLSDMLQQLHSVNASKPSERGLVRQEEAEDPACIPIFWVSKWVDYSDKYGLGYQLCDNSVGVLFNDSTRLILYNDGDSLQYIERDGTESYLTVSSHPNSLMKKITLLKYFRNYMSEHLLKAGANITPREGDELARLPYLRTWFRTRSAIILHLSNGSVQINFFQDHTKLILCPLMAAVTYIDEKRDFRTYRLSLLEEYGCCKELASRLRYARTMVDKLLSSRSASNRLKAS

| Compound | IC50 [µM] |
| --- | --- |
| COc1ccc(Nc2ncc3c(n2)N(C2CCCC2)CCC(=O)N3C)cn1 [Example 267, 6-cyclopentyl-9-[(6-methoxypyridin-3-yl)amino]-2-methyl-2,6,8,10-tetrazabicyclo[5.4.0]undeca-8,10,12-trien-3-one] | < 1 |
| CC(C)c1cccc(Nc2ncc3c(n2)N(C2CCCC2)CCC(=O)N3C)c1 [Example 174, 6-cyclopentyl-2-methyl-9-[(3-propan-2-ylphenyl)amino]-2,6,8,10-tetrazabicyclo[5.4.0]undeca-8,10,12-trien-3-one] | < 100 |
| CN1C(=O)CCN(c2ccccc2)c2nc(Nc3ccc(C(=O)NCCN4CCOCC4)cc3Cl)ncc21 [Example 226, 3-chloro-4-[(2-methyl-3-oxo-6-phenyl-2,6,8,10-tetrazabicyclo[5.4.0]undeca-8,10,12-trien-9-yl)amino]-N-(2-morpholin-4-ylethyl)benzamide] | < 1 |
| CN1C(=O)CCN(C2CCCC2)c2nc(Nc3ccc(N4CCOCC4)cc3)ncc21 [Example 121, 6-cyclopentyl-2-methyl-9-[(4-morpholin-4-ylphenyl)amino]-2,6,8,10-tetrazabicyclo[5.4.0]undeca-8,10,12-trien-3-one] | < 100 |
| CN1C(=O)CCN(C2CCCC2)c2nc(Nc3cccc(S(=O)(=O)N4CCOCC4)c3)ncc21 [Example 183, 6-cyclopentyl-2-methyl-9-[(3-morpholin-4-ylsulfonylphenyl)amino]-2,6,8,10-tetrazabicyclo[5.4.0]undeca-8,10,12-trien-3-one] | < 100 |
| Cc1nc(Nc2ncc3c(n2)N(C2CCCC2)CCC(=O)N3C)sc1C(=O)NC1CCN(C)CC1 [Example 262, 2-[(6-cyclopentyl-2-methyl-3-oxo-2,6,8,10-tetrazabicyclo[5.4.0]undeca-8,10,12-trien-9-yl)amino]-4-methyl-N-(1-methyl-4-piperidyl)1,3-thiazole-5-carboxamide] | < 1 |
| CN1C(=O)CCN(C2CCCC2)c2nc(Nc3cccc(C(=O)c4ccccc4)c3)ncc21 [Example 169, 9-[(3-benzoylphenyl)amino]-6-cyclopentyl-2-methyl-2,6,8,10-tetrazabicyclo[5.4.0]undeca-8,10,12-trien-3-one] | < 100 |
| COc1cc(Nc2ncc3c(n2)N(C2CCCC2)CCC(=O)N3C)cc(OC)c1OC [Example 129, 6-cyclopentyl-2-methyl-9-[(3,4,5-trimethoxyphenyl)amino]-2,6,8,10-tetrazabicyclo[5.4.0]undeca-8,10,12-trien-3-one] | < 1 |
| COC(=O)[C@H]1CC[C@@H](NC(=O)c2ccc(Nc3ncc4c(n3)N(C3CCCC3)CCC(=O)N4C)c(OC)c2)C1 [Example 65, Methyl(1S,3R)-3-[[4-[(6-cyclopentyl-2-methyl-3-oxo-2,6,8,10-tetrazabicyclo[5.4.0]undeca-8,10,12-trien-9-yl)amino]-3-methoxy-benzoyl]amino]cyclopentane-1-carboxylate] | < 1 |
| CN1C(=O)CCN(C2CCCC2)c2nc(Nc3cccc(C#N)c3)ncc21 [Example 164, 3-[(6-cyclopentyl-2-methyl-3-oxo-2,6,8,10-tetrazabicyclo[5.4.0]undeca-8,10,12-trien-9-yl)amino]benzonitrile] | < 100 |
| CN1C(=O)CCN(C2CCCC2)c2nc(Nc3ccc(S(=O)(=O)N4CCCCC4)cc3)ncc21 [Example 134, 6-cyclopentyl-2-methyl-9-[[4-(1-piperidylsulfonyl)phenyl]amino]-2,6,8,10-tetrazabicyclo[5.4.0]undeca-8,10,12-trien-3-one] | < 100 |
| O=C1CCN(c2ccccc2)c2nc(Nc3ccc(C(=O)NCCN4CCOCC4)cc3)ncc2N1 [Example 249, N-(2-morpholin-4-ylethyl)-4-[(3-oxo-6-phenyl-2,6,8,10-tetrazabicyclo[5.4.0]undeca-7,9,11-trien-9-yl)amino]benzamide] | < 100 |
| COc1cc(C(=O)NC2CCN(C)CC2)ccc1Nc1ncc2c(n1)N(Cc1c(C)noc1C)CCC(=O)N2C [Example 273, 4-[[2-[(3,5-dimethyl-1,2-oxazol-4-yl)methyl]-6-methyl-5-oxo-2,6,9,11-tetrazabicyclo[5.4.0]undeca-7,9,11-trien-10-yl]amino]-3-methoxy-N-(1-methyl-4-piperidyl)benzamide] | < 100 |
| CN1CCC(NC(=O)c2ccc(Nc3ncc4c(n3)N(C3CCCC3)CCC(=O)N4)cc2)CC1 [Example 254, 4-[(6-cyclopentyl-3-oxo-2,6,8,10-tetrazabicyclo[5.4.0]undeca-8,10,12-trien-9-yl)amino]-N-(1-methyl-4-piperidyl)benzamide] | < 100 |
| CN1C(=O)CCN(C2CCCC2)c2nc(Nc3ccccc3O)ncc21 [Example 142, 6-cyclopentyl-9-[(2-hydroxyphenyl)amino]-2-methyl-2,6,8,10-tetrazabicyclo[5.4.0]undeca-8,10,12-trien-3-one] | < 0.3 |
| CN1C(=O)CCN(C2CCCC2)c2nc(Nc3ccccc3NCCN3CCOCC3)ncc21 [Example 156, 6-cyclopentyl-2-methyl-9-[[2-(2-morpholin-4-ylethylamino)phenyl]amino]-2,6,8,10-tetrazabicyclo[5.4.0]undeca-8,10,12-trien-3-one] | < 100 |
| COc1cc(C(=O)NC2CCN(C)CC2)ccc1Nc1ncc2c(n1)N(Cc1csc(C)n1)CCC(=O)N2C [Example 216, 3-methoxy-4-[[2-methyl-6-[(2-methyl1,3-thiazol-4-yl)methyl]-3-oxo-2,6,8,10-tetrazabicyclo[5.4.0]undeca-7,9,11-trien-9-yl]amino]-N-(1-methyl-4-piperidyl)benzamide] | < 1 |
| CCCC1CN(C2CCCC2)c2nc(Nc3ccc(C(=O)NC4CCN(C)CC4)cc3OC)ncc2N(C)C1=O (single isomer, unassigned) [Example 239] | < 100 |
| CSc1cccc(Nc2ncc3c(n2)N(C2CCCC2)CCC(=O)N3C)c1 [Example 163, 6-cyclopentyl-2-methyl-9-[(3-methylsulfanylphenyl)amino]-2,6,8,10-tetrazabicyclo[5.4.0]undeca-8,10,12-trien-3-one] | < 100 |

Next, values leading:

| IC50 [µM] | Compound |
| --- | --- |
| < 100 | CN(C)CC(C)(C)CNC(=O)c1ccc(Nc2ncc3c(n2)N(C2CCCC2)CCC(=O)N3)c(Cl)c1 [Example 255, 3-chloro-4-[(6-cyclopentyl-3-oxo-2,6,8,10-tetrazabicyclo[5.4.0]undeca-8,10,12-trien-9-yl)amino]-N-(3-dimethylamino-2,2-dimethyl-propyl)benzamide] |
| < 1 | CCN1C(=O)CCN(C2CCCC2)c2nc(Nc3ccc(C(=O)NC4CCN(C)CC4)cc3OC)ncc21 [Example 259, 4-[(6-cyclopentyl-2-ethyl-3-oxo-2,6,8,10-tetrazabicyclo[5.4.0]undeca-8,10,12-trien-9-yl)amino]-3-methoxy-N-(1-methyl-4-piperidyl)benzamide] |
| < 0.3 | CC(C)N1CCC(=O)N(C)c2cnc(Nc3ccc(C(=O)NCC(C)(C)CN(C)C)cc3)nc21 [Example 222, N-(3-dimethylamino-2,2-dimethyl-propyl)-4-[(2-methyl-3-oxo-6-propan-2-yl-2,6,8,10-tetrazabicyclo[5.4.0]undeca-7,9,11-trien-9-yl)amino]benzamide] |
| < 100 | CN1C(=O)CCN(C2CCCC2)c2nc(Nc3ccc(Cl)nc3)ncc21 [Example 266, 9-[(6-chloropyridin-3-yl)amino]-6-cyclopentyl-2-methyl-2,6,8,10-tetrazabicyclo[5.4.0]undeca-8,10,12-trien-3-one] |
| < 1 | 6-cyclopentyl-2-methyl-9-[(2,4,6-trimethoxyphenyl)amino]-2,6,8,10-tetrazabicyclo[5.4.0]undeca-8,10,12-trien-3-one [Example 112] |
| < 1 | COc1cccc(Nc2ncc3c(n2)N(C2CCCC2)CCC(=O)N3C)c1 [Example 161, 6-cyclopentyl-9-[(3-methoxyphenyl)amino]-2-methyl-2,6,8,10-tetrazabicyclo[5.4.0]undeca-8,10,12-trien-3-one] |
| < 1 | 6-cyclopentyl-2-methyl-9-[(2,3,4-trimethoxyphenyl)amino]-2,6,8,10-tetrazabicyclo[5.4.0]undeca-8,10,12-trien-3-one [Example 130] |
| < 0.3 | COc1cc(C(=O)O)ccc1Nc1ncc2c(n1)N(C1CCCC1)CCC(=O)N2C [Example 111, 4-[(2-cyclopentyl-6-methyl-5-oxo-2,6,9,11-tetrazabicyclo[5.4.0]undeca-7,9,11-trien-10-yl)amino]-3-methoxy-benzoic acid] |
| < 1 | CNC(=O)c1ccc(Nc2ncc3c(n2)N(C2CCCC2)CCC(=O)N3C)c(OCCOC)c1 [Example 196, 4-[(6-cyclopentyl-2-methyl-3-oxo-2,6,8,10-tetrazabicyclo[5.4.0]undeca-8,10,12-trien-9-yl)amino]-3-(2-methoxyethoxy)-N-methyl-benzamide] |
| < 1 | 6-cyclopentyl-9-[[5-(3-dimethylaminopyrrolidin-1-yl)-2-methoxy-phenyl]amino]-2-methyl-2,6,8,10-tetrazabicyclo[5.4.0]undeca-8,10,12-trien-3-one [Example 182] |
| < 100 | CN1C(=O)CCN(C2CCCC2)c2nc(Nc3ccc(C#N)c(C(F)(F)F)c3)ncc21 [Example 116, 4-[(6-cyclopentyl-2-methyl-3-oxo-2,6,8,10-tetrazabicyclo[5.4.0]undeca-8,10,12-trien-9-yl)amino]-2-(trifluoromethyl)benzonitrile] |
| < 100 | CN1CCC(NC(=O)c2csc(Nc3ncc4c(n3)N(C3CCCC3)CCC(=O)N4C)n2)CC1 [Example 261, 2-[(6-cyclopentyl-2-methyl-3-oxo-2,6,8,10-tetrazabicyclo[5.4.0]undeca-8,10,12-trien-9-yl)amino]-N-(1-methyl-4-piperidyl)1,3-thiazole-4-carboxamide] |
| < 100 | CCNS(=O)(=O)c1ccccc1Nc1ncc2c(n1)N(C1CCCC1)CCC(=O)N2C [Example 154, 2-[(6-cyclopentyl-2-methyl-3-oxo-2,6,8,10-tetrazabicyclo[5.4.0]undeca-8,10,12-trien-9-yl)amino]-N-ethyl-benzenesulfonamide] |
| < 100 | CN1C(=O)CCN(C2CCCC2)c2nc(Nc3ccccc3-c3ccccc3)ncc21 [Example 148, 6-cyclopentyl-2-methyl-9-[(2-phenylphenyl)amino]-2,6,8,10-tetrazabicyclo[5.4.0]undeca-8,10,12-trien-3-one] |

From patent publication US7709471B2, “Compounds” (AstraZeneca AB, priority 2006, dated 2010)
